Target: T1, androgen receptor (AR) splicing variant AR-v7 (Homo sapiens, UniProt P10275)
T1 construct: The degradation activity of compounds on AR-v7 in 22RV1 cells; host or cells: 22RV1 cells
T1 sequence (P10275 1-644 isoform P10275-3): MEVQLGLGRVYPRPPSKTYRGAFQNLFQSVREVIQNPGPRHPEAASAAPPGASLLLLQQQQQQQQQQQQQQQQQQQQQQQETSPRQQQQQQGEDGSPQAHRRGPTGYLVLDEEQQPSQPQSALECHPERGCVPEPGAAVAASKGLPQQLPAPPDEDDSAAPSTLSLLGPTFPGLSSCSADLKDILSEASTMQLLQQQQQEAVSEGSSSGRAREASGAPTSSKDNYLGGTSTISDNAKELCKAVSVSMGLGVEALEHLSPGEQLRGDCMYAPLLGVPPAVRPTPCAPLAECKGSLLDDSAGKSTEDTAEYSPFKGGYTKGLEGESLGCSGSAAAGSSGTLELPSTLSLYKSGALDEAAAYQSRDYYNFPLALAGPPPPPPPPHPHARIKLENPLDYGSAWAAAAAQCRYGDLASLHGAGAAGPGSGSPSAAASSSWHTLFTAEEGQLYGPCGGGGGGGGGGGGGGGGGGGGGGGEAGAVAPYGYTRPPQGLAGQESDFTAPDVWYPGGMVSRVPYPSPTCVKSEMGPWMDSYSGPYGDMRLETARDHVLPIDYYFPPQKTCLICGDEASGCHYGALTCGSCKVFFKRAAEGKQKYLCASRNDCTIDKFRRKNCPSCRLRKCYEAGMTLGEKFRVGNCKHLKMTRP
Test: Degradation activity on androgen receptor splicing variant AR-v7 in 22RV1 cells (ELISA)
Format: cell-based
Details: AR-v7 degradation in 22RV1 cells, 48 h

SMILES | DC50 (class symbols) | DC50 (numeric values)
CC(C)(c1ccc(Oc2ccnc(-n3ccnn3)c2)cc1)c1ccc(O[C@H]2C[C@H](Nc3ccc4c(c3)C(=O)N(C3CCC(=O)NC3=O)C4=O)C2)cc1 (stereo partly drawn) [Example 163, 5-((1r,3r)-3-(4-(2-(2-(4-((1H-1,2,3-triazol-2-yl)pyridin-4-yl)oxy)phenyl)propan-2-ylphenoxy)cyclobutyl)amino)-2-(2,6-dioxopiperidin-3-yl)isoindolin-1,3-dione] | 11 to 100 nM | –
CC(C)(c1ccc(Oc2cc(-n3nccn3)ccn2)cc1)c1ccc(O[C@H]2C[C@H](Nc3ccc4c(c3)C(=O)N(C3CCC(=O)NC3=O)C4=O)C2)cc1 (stereo partly drawn) [Example 165, 5-(((1r,3r)-3-(4-(2-((4-(2H-1,2,3-triazol-2-yl)pyridin-2-yl)oxy)phenyl)propan-2-ylphenoxy)cyclobutyl)amino)-2-(2,6-dioxopyridin-3-yl)isoindol-1,3-dione] | 11 to 100 nM | –
Cc1nc(-c2cc(Oc3ccc(C(C)(C)c4ccc(O[C@H]5C[C@@H](Nc6ccc7c(c6)C(=O)N(C6CCC(=O)NC6=O)C7=O)C5)cc4)cc3)ccn2)no1 (stereo partly drawn) [Example 174, 2-(2,6-dioxopyridin-3-yl)-5-(((1s,3s)-3-(4-(2-(4-((2-(5-methyl-1,2,4-oxadiazol-3-yl)pyridin-4-yl)oxy)phenyl)propan-2-yl)phenoxy)cyclobutyl)amino) isoindolin-1,3-dione] | 11 to 100 nM | –
Cc1nc(-c2ncc(Oc3ccc(C(C)(C)c4ccc(N5CCC56CN(c5ccc7c(c5)C(=O)N(C5CCC(=O)NC5=O)C7=O)C6)cc4)cc3)cn2)no1 (stereo not drawn) [Example 179, 2-(2,6-dioxopiperidin-3-yl)-5-(1-(4-(2-(4-((2-(5-methyl-1,2,4-oxadiazol-3-yl)pyrimidin-5-yl)oxy)phenyl)propan-2-yl)phenyl)-1,6-diazaspiro[3.3]heptan-6-yl)isoindolin-1,3-dione] | 101 to 1000 nM | –
CN(C)C(=O)c1noc(COc2ccc(C(C)(C)c3ccc(OCCCNc4ccc5c(c4)C(=O)N(C4CCC(=O)NC4=O)C5=O)cc3)cc2)n1 (stereo not drawn) [Example 180, 5-((4-(2-(4-(3-((2-(2,6-dioxopiperidin-3-yl)-1,3-dioxoisoindolin-5-yl)amino)propoxy)phenyl)propan-2-yl)phenoxy)methyl)-N,N-dimethyl-1,2,4-oxadiazol-3-carbonylamine] | 1000 to 5000 nM | –
Cc1nccc(Oc2ccc(C(C)(C)c3ccc(O[C@H]4C[C@@H](Nc5ccc6c(c5)C(=O)N(C5CCC(=O)NC5=O)C6=O)C4)cc3)cc2)n1 (stereo partly drawn) [Example 198] | 11 to 100 nM | –
CC(C)(c1ccc(OCc2nc(N3CC4(COC4)C3)ncc2F)cc1)c1ccc(O[C@H]2C[C@@H](Nc3ccc4c(c3)C(=O)N(C3CCC(=O)NC3=O)C4=O)C2)cc1 (stereo partly drawn) [Example 199] | 11 to 100 nM | –
CC(C)(c1ccc(OCc2nc(N3CC4(COC4)C3)ncc2Cl)cc1)c1ccc(O[C@H]2C[C@H](Nc3ccc4c(c3)C(=O)N(C3CCC(=O)NC3=O)C4=O)C2)cc1 (stereo partly drawn) [Example 202, 5-((1r,3r)-3-(4-(2-(4-((5-chloro-2-(2-oxa-6-azaspiro[3.3]heptan-6-yl)pyrimidin-4-methoxy)phenyl)propan-2-yl)phenoxy)cyclobutyl)amino)-2-(2,6-dioxopiperidin-3-yl)isoindolin-1,3-dione] | 11 to 100 nM | –
Cc1cnc(N2CC3(COC3)C2)nc1COc1ccc(C(C)(C)c2ccc(O[C@H]3C[C@@H](Nc4ccc5c(c4)C(=O)N(C4CCC(=O)NC4=O)C5=O)C3)cc2)cc1 (stereo partly drawn) [Example 203] | 11 to 100 nM | –
Cn1cc(-c2ccc(Oc3ccc(C(C)(C)c4ccc(O[C@H]5C[C@H](Nc6ccc7c(c6)C(=O)N(C6CCC(=O)NC6=O)C7=O)C5)cc4)cc3)cn2)cn1 (stereo partly drawn) [Example 205] | 11 to 100 nM | –
Cc1nc(-c2ccc(Oc3ccc(C(C)(C)c4ccc(O[C@H]5C[C@@H](Nc6ccc7c(c6)C(=O)N(C6CCC(=O)NC6=O)C7=O)C5)cc4)cc3)nc2)no1 (stereo partly drawn) [Example 213] | 11 to 100 nM | –
CC(C)(c1ccc(Oc2ccc(N3CC4(COC4)C3)nc2)cc1)c1ccc(O[C@H]2C[C@H](Nc3ccc4c(c3)C(=O)N(C3CCC(=O)NC3=O)C4=O)C2)cc1 (stereo partly drawn) [Example 214] | 11 to 100 nM | –
C=CC(=O)Nc1nccc(COc2ccc(C(C)(C)c3ccc(OCCCCCCCCOCCN4CCN(c5ccc6c(c5)C(=O)N(C5CCC(=O)NC5=O)C6=O)CC4)cc3)cc2)n1 (stereo not drawn) [Example 227] | – | > 10000 nM
CC(C)(c1ccc(OCc2ccnc(OC3CCN(C(=O)OCc4ccccc4)CC3)n2)cc1)c1ccc(O[C@H]2C[C@@H](Nc3ccc4c(c3)C(=O)N(C3CCC(=O)NC3=O)C4=O)C2)cc1 (stereo partly drawn) [Example 235] | 101 to 1000 nM | –
CN(C)[C@H]1CCN(c2nccc(COc3ccc(C(C)(C)c4ccc(O[C@H]5C[C@@H](Nc6ccc7c(c6)C(=O)N(C6CCC(=O)NC6=O)C7=O)C5)cc4)cc3)n2)C1 (stereo partly drawn) [Example 238] | 11 to 100 nM | –
CN1CC[C@@H](Oc2nccc(COc3ccc(C(C)(C)c4ccc(O[C@H]5C[C@@H](Nc6ccc7c(c6)C(=O)N(C6CCC(=O)NC6=O)C7=O)C5)cc4)cc3)n2)C1 (stereo partly drawn) [Example 243] | < 10 nM | –

The next lines start with the values.

DC50 (class symbols) | DC50 (numeric values) | SMILES
11 to 100 nM | – | Cc1nc(-c2cc(Oc3ccc(C(C)(C)c4ccc(O[C@H]5C[C@H](Nc6ccc7c(c6)C(=O)N(C6CCC(=O)NC6=O)C7=O)C5)cc4)cc3)ccn2)no1 (stereo partly drawn) [Example 167, 2-(2,6-dioxopyridin-3-yl)-5-(((1r,3r)-3-(4-(2-((4-(2-(5-methyl-1,2,4-oxadiazol-3-yl)pyridin-4-yl)oxy)phenyl)propan-2-yl)phenoxy)cyclobutyl)amino) isoindolin-1,3-dione]
1000 to 5000 nM | – | COC(=O)c1nccc(COc2ccc(C(C)(C)c3ccc(OCCCNc4ccc5c(c4)C(=O)N(C4CCC(=O)NC4=O)C5=O)cc3)cc2)n1 (stereo not drawn) [Example 184]
11 to 100 nM | – | CN1CCN(c2ncc3c(n2)CN(c2ccc(C(C)(C)c4ccc(O[C@H]5C[C@@H](Nc6ccc7c(c6)C(=O)N(C6CCC(=O)NC6=O)C7=O)C5)cc4)cc2)CC3)CC1 (stereo partly drawn) [Example 191]
11 to 100 nM | – | CN1CCN(c2ncc3c(n2)CN(c2ccc(C(C)(C)c4ccc(O[C@H]5C[C@H](Nc6ccc7c(c6)C(=O)N(C6CCC(=O)NC6=O)C7=O)C5)cc4)cc2)CC3)CC1 (stereo partly drawn) [Example 192, 2-(2,6-dioxopiperidin-3-yl)-5-((1r,3r)-3-(4-(2-(2-(4-methylpiperazin-1-yl)-5,8-dihydropyrido[3,4-d]pyrimidin-7(6H)-phenyl)propan-2-ylphenoxy)cyclobutyl)amino)isoindolin-1,3-dione]
11 to 100 nM | – | CC(C)(c1ccc(OCc2nc(N3CC4(COC4)C3)ncc2Cl)cc1)c1ccc(O[C@H]2C[C@@H](Nc3ccc4c(c3)C(=O)N(C3CCC(=O)NC3=O)C4=O)C2)cc1 (stereo partly drawn) [Example 201, 5-((1s,3s)-3-(4-(2-(4-((5-chloro-2-(2-oxa-6-azaspiro[3.3]heptan-6-yl)pyrimidin-4-methoxy)phenyl)propan-2-yl)phenoxy)cyclobutyl)amino)-2-(2,6-dioxopiperidin-3-yl)isoindolin-1,3-dione]
11 to 100 nM | – | CC(C)(c1ccc(Oc2ccc(-n3cccn3)nc2)cc1)c1ccc(O[C@H]2C[C@H](Nc3ccc4c(c3)C(=O)N(C3CCC(=O)NC3=O)C4=O)C2)cc1 (stereo partly drawn) [Example 208]
11 to 100 nM | – | Cc1nc(-c2ncc(Oc3ccc(C(C)(C)c4ccc(O[C@H]5C[C@H](Nc6ccc7c(c6)C(=O)N(C6CCC(=O)NC6=O)C7=O)C5)cc4)cc3)cc2C(F)(F)F)no1 (stereo partly drawn) [Example 211]
11 to 100 nM | – | CC(C)(c1ccc(Oc2cnc(N)nn2)cc1)c1ccc(O[C@H]2C[C@H](Nc3ccc4c(c3)C(=O)N(C3CCC(=O)NC3=O)C4=O)C2)cc1 (stereo partly drawn) [Example 215]
11 to 100 nM | – | Cc1nnc(-c2ccc(Oc3ccc(C(C)(C)c4ccc(O[C@H]5C[C@H](Nc6ccc7c(c6)C(=O)N(C6CCC(=O)NC6=O)C7=O)C5)cc4)cc3)nc2)o1 (stereo partly drawn) [Example 216]
101 to 1000 nM | – | Cc1nc(COc2ccc(C(C)(C)c3ccc(OCCCNc4cccc5c4C(=O)N(C4CCC(=O)NC4=O)C5=O)cc3)cc2)cs1 (stereo not drawn) [Example 224, 2-(2,6-dioxopiperidin-3-yl)-4-((3-(4-(2-(4-((2-methylthiazol-4-yl)methoxy)phenyl)propan-2-yl)phenoxy)propyl)amino)isoindolin-1,3-dione]
– | > 10000 nM | CC(C)(c1ccc(OCCCCCCCCOCCCCNc2ccc3c(c2)C(=O)N(C2CCC(=O)NC2=O)C3=O)cc1)c1ccc(OCc2ccnc(Nc3ncco3)n2)cc1 (stereo not drawn) [Example 226]
11 to 100 nM | – | CN1CCC(Oc2nccc(COc3ccc(C(C)(C)c4ccc(O[C@H]5C[C@@H](Nc6ccc7c(c6)C(=O)N(C6CCC(=O)NC6=O)C7=O)C5)cc4)cc3)n2)CC1 (stereo partly drawn) [Example 234]
11 to 100 nM | – | CC(C)(c1ccc(OCc2ccnc(OC3CCNCC3)n2)cc1)c1ccc(O[C@H]2C[C@@H](Nc3ccc4c(c3)C(=O)N(C3CCC(=O)NC3=O)C4=O)C2)cc1 (stereo partly drawn) [Example 236]
11 to 100 nM | – | CC(C)(c1ccc(OCc2ccnc(N3CCN(CCO)CC3)n2)cc1)c1ccc(O[C@H]2C[C@@H](Nc3ccc4c(c3)C(=O)N(C3CCC(=O)NC3=O)C4=O)C2)cc1 (stereo partly drawn) [Example 241, 2-(2,6-dioxopiperidin-3-yl)-5-(((1s,3s)-3-(4-(2-(4-((2-(4-(2-hydroxylethyl)piperazin-1-yl)pyrimidin-4-yl)methoxy)phenyl)propan-2-yl)phenoxy)cyclobutyl)amino)isoindolin-1,3-dione]
